Read-outs that look alike come from different tables or passages of the source.
What was measured:
Mouse Serum Albumin = biological target: T1, Mouse Serum Albumin (Mus musculus, UniProt P07724); test: ThermoFluor thermal shift assay with mouse serum albumin; format: binding
T1 construct: The above albumins were prepared using method IV of Cohn et al. (J. Am. Chem. Soc. 69: 1753-1761, 1947) and purified with 1× crystallization; purchased Sigma A-3559
Description: (§1) To evaluate the bioavailability of a compound in various species, the compound's affinity and specificity to albumins from human, bovine, rat, and mouse were examined. […] The resulting 1× reaction mixture comprising human serum albumin, bovine serum albumin, rat serum albumin, or mouse serum albumin was used with a panel of compounds in the binding assay.

HSA = HSA (Homo sapiens, UniProt P02768); details: binding site on HSA from previous reports; cited from earlier work
Chain of HSA (P02768 25-609): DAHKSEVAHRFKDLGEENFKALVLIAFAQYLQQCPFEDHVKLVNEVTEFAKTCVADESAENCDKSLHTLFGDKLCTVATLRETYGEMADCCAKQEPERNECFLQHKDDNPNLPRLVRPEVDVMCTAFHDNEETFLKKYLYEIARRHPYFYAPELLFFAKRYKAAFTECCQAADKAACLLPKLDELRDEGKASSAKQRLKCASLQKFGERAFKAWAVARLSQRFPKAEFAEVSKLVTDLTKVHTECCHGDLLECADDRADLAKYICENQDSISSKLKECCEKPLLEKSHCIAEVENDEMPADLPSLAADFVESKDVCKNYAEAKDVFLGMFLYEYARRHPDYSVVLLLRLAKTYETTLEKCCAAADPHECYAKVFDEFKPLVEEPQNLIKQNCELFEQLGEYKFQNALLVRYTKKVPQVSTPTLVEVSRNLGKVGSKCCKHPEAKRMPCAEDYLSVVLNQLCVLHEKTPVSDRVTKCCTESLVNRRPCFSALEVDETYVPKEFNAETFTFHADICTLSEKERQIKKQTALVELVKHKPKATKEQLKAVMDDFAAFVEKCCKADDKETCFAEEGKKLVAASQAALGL

[1] = biological target: Human Serum Albumin (HSA) (Homo sapiens, UniProt P02768); test: ThermoFluor thermal shift assay with human serum albumin
Chain of Human Serum Albumin (HSA) (P02768 25-609): as above
Protocol: (§2) 1× reaction mixture of about 50 μg/mL human serum albumin, about 4 μM 1,8-ANS, about 150 mM NaCl, about 25 mM PIPES, pH 7.2, and about 0.002% Tween®-20 was prepared.
(§3) To prevent evaporation, about 1 μL of silicone oil was added to the plate using multichannel pipettors.
The plates were loaded onto a ThermoFluor® device and heated from about 25° C. to about 95° C. at a ramp-rate of about 1° C. per minute. Fluorescence was measured by continuous illumination with UV light (Hamamatsu LC6) via fiber optic and filtered through a band-pass filter of about 390±10 nm; >6 OD cutoff. Fluorescence emissions were detected by measuring light intensity using a CCD camera (Sensys, Roper Scientific) filtered to detect about 500±25 nm; >6 OD cutoff. This allows for the entire plate to be simultaneously monitored and each sample to be independently monitored. One or more images were collected at an interval of every about 0.5° C. to about 1° C. The sum of the pixel intensity at a given area of the plate was recorded vs. temperature.
(§4) The values of Tm, ΔH, yF,Tm, mF, yU,Tm and mU were calculated for each sample according to Equation 9. Further, the value of Tm over the compound concentration was used to calculate the binding constant (KD) using Equation 10b. A shift in the denaturation curve of albumin indicates whether the compound binds to albumin, and the value of KD indicates the binding strength of compounds to albumin. A shift of the fluorescence signal indicates the specificity of compounds to albumin, and the value of IC50 indicates the binding strength to the site I (Equation 11).
(§5) The compounds and 1× reaction mixture were dispensed and measured for the fluorescence value using the plate-based reader Tecan® Safire II. Then the plate was heated in a ThermoFluor® system and measured for fluorescence value and the thermal shift value. The fluorescence values were measured twice by both plate reader and ThermoFluor®. The fluorescence value obtained from ThermoFluor® was used for qualitative assessment whereas those from the plate reader was used for quantitative assessment. The value of IC50 was determined by the fluorescence obtained from the plate reader and was fit using Equation 11 described above. The value of KD was determined by the readings from ThermoFluor® and was fit using Equation 10b described above.

[2] = biological target: Human Serum Albumin (HSA) site I (Homo sapiens, UniProt P02768); test: 1,8-ANS site-specific probe displacement (fluorescence) from HSA site I; details: for % Displacement: percent displacement of the site-specific probe 1,8-ANS at the second highest concentration of test ligand; for Fluorescent Signal: initial 1,8-ANS fluorescence as % of fluorescence without compound
Chain of Human Serum Albumin (HSA) site I (P02768 25-609): as above
Description: In addition to the thermal shift assay, the assay test plate may be utilized in a separate fluorescence measurement using a plate-based reader that is compatible with any relevant wavelengths. The preferred plate-based reader is Tecan Satire II. The displacement of site-specific probe such as 1,8-ANS from albumin site 1 by test ligand may cause a decrease in observed fluorescence that may be fit to Equation 11 to determine the value of IC50.
Additionally, the percent displacement may be determined by (y−yhigh), divided by the difference of low (y0) and high endpoints (yhigh), wherein y is determined at the second highest concentration.
as §2, §3, §4, §5

[3] = biological target: T2, Bovine Serum Albumin (BSA) (Bos taurus, UniProt P02769); test: ThermoFluor thermal shift assay with bovine serum albumin; format: binding
T2 construct: The above albumins were prepared using method IV of Cohn et al. (J. Am. Chem. Soc. 69: 1753-1761, 1947) and purified with 1× crystallization; purchased Sigma A-7638
T2 sequence (P02769 25-607): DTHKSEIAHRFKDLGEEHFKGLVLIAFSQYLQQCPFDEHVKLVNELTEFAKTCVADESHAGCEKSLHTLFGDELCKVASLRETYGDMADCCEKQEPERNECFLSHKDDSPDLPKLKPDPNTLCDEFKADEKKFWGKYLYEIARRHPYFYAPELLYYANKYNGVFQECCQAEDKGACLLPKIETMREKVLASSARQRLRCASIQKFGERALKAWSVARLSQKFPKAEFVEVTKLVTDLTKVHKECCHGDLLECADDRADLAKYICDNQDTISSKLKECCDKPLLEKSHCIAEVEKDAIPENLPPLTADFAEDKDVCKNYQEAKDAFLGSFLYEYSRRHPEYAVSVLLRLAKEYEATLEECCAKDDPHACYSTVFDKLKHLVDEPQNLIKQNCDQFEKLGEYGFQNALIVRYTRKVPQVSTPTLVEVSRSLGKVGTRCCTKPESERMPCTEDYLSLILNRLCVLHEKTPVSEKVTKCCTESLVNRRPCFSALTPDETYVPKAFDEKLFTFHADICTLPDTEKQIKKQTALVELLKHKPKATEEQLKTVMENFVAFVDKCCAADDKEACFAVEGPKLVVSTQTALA
Description: as §1

Rat Serum Albumin = biological target: T3, Rat Serum Albumin (Rattus norvegicus, UniProt P02770); test: ThermoFluor thermal shift assay with rat serum albumin; format: binding
T3 construct: The above albumins were prepared using method IV of Cohn et al. (J. Am. Chem. Soc. 69: 1753-1761, 1947) and purified with 1× crystallization; purchased Sigma A-6414
T3 sequence (P02770 25-608): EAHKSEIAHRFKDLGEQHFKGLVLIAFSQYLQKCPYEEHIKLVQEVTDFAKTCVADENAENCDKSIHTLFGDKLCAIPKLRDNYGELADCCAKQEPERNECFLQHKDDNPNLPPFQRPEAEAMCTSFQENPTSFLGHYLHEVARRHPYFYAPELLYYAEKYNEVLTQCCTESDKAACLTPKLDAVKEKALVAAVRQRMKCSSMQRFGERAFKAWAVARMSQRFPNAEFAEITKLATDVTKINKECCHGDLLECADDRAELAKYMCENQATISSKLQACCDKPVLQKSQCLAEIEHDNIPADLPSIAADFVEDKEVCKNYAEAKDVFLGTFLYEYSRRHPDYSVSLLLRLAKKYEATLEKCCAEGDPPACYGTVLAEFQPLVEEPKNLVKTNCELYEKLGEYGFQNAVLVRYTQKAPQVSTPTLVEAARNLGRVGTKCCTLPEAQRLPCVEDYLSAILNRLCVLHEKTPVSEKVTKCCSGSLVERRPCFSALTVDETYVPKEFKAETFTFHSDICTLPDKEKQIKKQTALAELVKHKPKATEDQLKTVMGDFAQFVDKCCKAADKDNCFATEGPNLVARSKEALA
Description: as §1

[4] = HSA - KD, Example 3, Table 2, ThermoFluor, Equation 10b
[5] = Human Albumin (KD), Example 4, Table 3
[6] = classified from KD versus IC50 and % displacement of 1,8-ANS

T1 sequence (P07724 25-608): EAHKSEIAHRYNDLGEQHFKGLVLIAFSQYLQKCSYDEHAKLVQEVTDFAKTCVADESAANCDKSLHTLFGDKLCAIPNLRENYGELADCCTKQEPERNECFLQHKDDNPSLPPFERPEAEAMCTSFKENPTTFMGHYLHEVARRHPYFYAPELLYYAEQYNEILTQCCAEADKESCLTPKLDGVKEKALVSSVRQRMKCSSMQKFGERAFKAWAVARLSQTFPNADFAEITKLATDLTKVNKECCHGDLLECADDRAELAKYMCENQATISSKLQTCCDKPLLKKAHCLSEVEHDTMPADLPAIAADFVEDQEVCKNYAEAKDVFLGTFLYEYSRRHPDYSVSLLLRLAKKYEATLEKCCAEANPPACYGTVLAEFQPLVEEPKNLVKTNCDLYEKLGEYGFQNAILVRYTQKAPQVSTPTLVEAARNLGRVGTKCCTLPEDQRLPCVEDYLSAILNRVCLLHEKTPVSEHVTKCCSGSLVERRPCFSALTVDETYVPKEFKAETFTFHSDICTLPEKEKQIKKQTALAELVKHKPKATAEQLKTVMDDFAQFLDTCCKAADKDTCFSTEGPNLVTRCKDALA

## CCCNC(=O)NS(=O)(=O)c1ccc(Cl)cc1 [Chlorpropamide, chlorpropamide]
Mouse Serum Albumin; Example 4, Table 3
  Kd: 110 µM
HSA
  Reported Binding Site: Site 1
[1]; [4]
  Kd: 82 µM
[1]; [5]
  Kd: 34.7 µM
[1]; [6]
  Type of HSA Binding Interaction: Type 4
[2]
  % Displacement: (20) %
[3]; Example 4, Table 3
  Kd: 41.7 µM
Rat Serum Albumin; Example 4, Table 3
  Kd: 29.6 µM

## CN1C(C(=O)Nc2ccccn2)=C(O)c2sccc2S1(=O)=O [Tenoxicam, tenoxicam]
Mouse Serum Albumin; Example 4, Table 3
  Kd: > 62.5 µM
[1]; [4]
  Kd: 13 µM
[1]; [5]
  Kd: 13 µM
[2]
  IC50: 35.5 µM
  % Displacement: (84) %
[3]; Example 4, Table 3
  Kd: > 62.5 µM
Rat Serum Albumin; Example 4, Table 3
  Kd: 33.8 µM

## c1ccc2c(c1)[nH]c1cnccc12 [Norharmane, norharmane]
Mouse Serum Albumin; Example 4, Table 3
  Kd: > 62.5 µM
HSA
  Reported Binding Site: Site 2
[1]
  Type of HSA Binding Interaction: Type 5
[1]; [4]
  Kd: 17.6 µM
[1]; [5]
  Kd: 17.6 µM
[3]; Example 4, Table 3
  Kd: > 62.5 µM
Rat Serum Albumin; Example 4, Table 3
  Kd: > 62.5 µM

## COc1cc(NS(=O)(=O)c2ccc(N)cc2)nc(OC)n1 [Sulfadimethoxine, sulfadimethoxine]
Mouse Serum Albumin; Example 4, Table 3
  Kd: 69.5 µM
HSA
  Reported Binding Site: Site 1
[1]; [5]
  Kd: > 62.5 µM
[1]; [6]
  Type of HSA Binding Interaction: Type 1
[2]
  IC50: 96 µM
  % Displacement: (71) %
[3]; Example 4, Table 3
  Kd: > 62.5 µM
Rat Serum Albumin; Example 4, Table 3
  Kd: 9.4 µM

## CCC(Cc1c(I)cc(I)c(O)c1I)C(=O)O (stereo not shown) [Iophenoxate, iophenoxate]
Mouse Serum Albumin; Example 4, Table 3
  Kd: 0.05 µM
HSA
  Reported Binding Site: Site 1
[1]
  Kd: 0.044 µM
[1]; [6]
  Type of HSA Binding Interaction: Type 1
[2]
  IC50: 0.711 µM
  % Displacement: (129) %
[3]; Example 4, Table 3
  Kd: 0.066 µM
Rat Serum Albumin; Example 4, Table 3
  Kd: 0.048 µM

## CC(C(=O)O)c1ccc2c(c1)[nH]c1ccc(Cl)cc12 (stereo not shown) [Carprofen, carprofen]
Mouse Serum Albumin; Example 4, Table 3
  Kd: 1.09 µM
HSA
  Reported Binding Site: Site 2
[1]; [4]
  Kd: 2.1 µM
[1]; [5]
  Kd: 2.1 µM
[1]; [6]
  Type of HSA Binding Interaction: Type 3
[2]
  IC50: 8.39 µM
  % Displacement: (87) %
[3]; Example 4, Table 3
  Kd: 2.91 µM
Rat Serum Albumin; Example 4, Table 3
  Kd: 1.53 µM

## NS(=O)(=O)c1cc2c(cc1Cl)N=CNS2(=O)=O [Chlorothiazide, chlorothiazide]
Mouse Serum Albumin; Example 4, Table 3
  Kd: > 62.5 µM
HSA
  Reported Binding Site: Site 2
[1]; [5]
  Kd: > 62.5 µM
[1]; [6]
  Type of HSA Binding Interaction: Type 4
[2]
  % Displacement: (12) %
[3]; Example 4, Table 3
  Kd: > 62.5 µM
Rat Serum Albumin; Example 4, Table 3
  Kd: > 62.5 µM

## N[C@@H](Cc1c[nH]c2ccccc12)C(=O)O [L-Tryptophan, L-tryptophan]
Mouse Serum Albumin
  Kd: > 62.5 µM
HSA
  Reported Binding Site: Multiple sites
[1]
  Type of HSA Binding Interaction: Type 5
[1]; Human Albumin (KD)
  Kd: > 62.5 µM
[3]
  Kd: > 62.5 µM
Rat Serum Albumin
  Kd: > 62.5 µM

## O=c1c(O)c(-c2ccc(O)c(O)c2)oc2cc(O)cc(O)c12 [Quercetin, quercetin]
Mouse Serum Albumin; Example 4, Table 3
  Kd: > 62.5 µM
HSA
  Reported Binding Site: Site 1
[1]; [4]
  Kd: 7.9 µM
[1]; [5]
  Kd: > 62.5 µM
[1]; [6]
  Type of HSA Binding Interaction: Type 1
[2]
  IC50: 25 µM
  % Displacement: (51) %
[2]; listed as quercetin
  % Displacement: about 51%
Rat Serum Albumin; Example 4, Table 3
  Kd: > 62.5 µM

## CC(C(=O)O)c1ccc(-c2ccccc2)c(F)c1 (stereo not shown) [Flurbiprofen, flurbiprofen]
Mouse Serum Albumin; Example 4, Table 3
  Kd: 3.79 µM
HSA
  Reported Binding Site: Site 2
[1]; [4]
  Kd: 2.1 µM
[1]; [5]
  Kd: 2.1 µM
[1]; KD, Example 2, Table 1, from Tm over compound concentration (Equation 10b)
  Kd: 2.7 µM
[1]; [6]
  Type of HSA Binding Interaction: Type 3
[1]; compound 0.244 μM
  HSA Tm: 74.4 °C
[1]; compound 0.488 μM
  HSA Tm: 74.1 °C
[1]; compound 0.977 μM
  HSA Tm: 74.3 °C
[1]; compound 1.95 μM
  HSA Tm: 74.4 °C
[1]; compound 3.91 μM
  HSA Tm: 75.0 °C
[1]; compound 7.81 μM
  HSA Tm: 75.1 °C
[1]; compound 15.6 μM
  HSA Tm: 75.7 °C
[1]; compound 31.3 μM
  HSA Tm: 76.1 °C
[1]; compound 62.5 μM
  HSA Tm: 76.8 °C
[1]; compound 125 μM
  HSA Tm: 78.2 °C
[1]; compound 250 μM
  HSA Tm: 80.2 °C
[2]
  IC50: 154 µM
  % Displacement: (47) %
[2]; Example 2, dose-dependent change of initial fluorescence
  Binding to site I of albumin as indicated by 1,8-ANS fluorescence: does not bind to site I
[2]; compound 0.244 μM
  Fluorescent Signal: 110%
[2]; compound 0.488 μM
  Fluorescent Signal: 105%
[2]; compound 0.977 μM
  Fluorescent Signal: 102%
[2]; compound 1.95 μM
  Fluorescent Signal: 104%
[2]; compound 3.91 μM
  Fluorescent Signal: 118%
[2]; compound 7.81 μM
  Fluorescent Signal: 106%
[2]; compound 15.6 μM
  Fluorescent Signal: 111%
[2]; compound 31.3 μM
  Fluorescent Signal: 108%
[2]; compound 62.5 μM
  Fluorescent Signal: 101%
[2]; compound 125 μM
  Fluorescent Signal: 109%
[2]; compound 250 μM
  Fluorescent Signal: 105%
[3]; Example 4, Table 3
  Kd: 1.88 µM
Rat Serum Albumin; Example 4, Table 3
  Kd: 2.93 µM

## C[C@]12CCC(=O)C=C1C=C[C@@H]1[C@@H]2CC[C@@]2(C)[C@H]1CC[C@@]2(O)CCC(=O)O [Canrenoate, canrenoate]
Mouse Serum Albumin; Example 4, Table 3
  Kd: > 62.5 µM
HSA
  Reported Binding Site: Site 1
[1]; [5]
  Kd: 39.5 µM
[1]; [6]
  Type of HSA Binding Interaction: Type 4
[2]
  % Displacement: (33) %
[3]; Example 4, Table 3
  Kd: > 62.5 µM
Rat Serum Albumin; Example 4, Table 3
  Kd: > 62.5 µM

## C=CC1=C(C)/C(=C/c2[nH]c(Cc3[nH]c(/C=C4\NC(=O)C(C)=C4C=C)c(C)c3CCC(=O)O)c(CCC(=O)O)c2C)NC1=O [Bilirubin, bilirubin]
Mouse Serum Albumin; Example 4, Table 3
  Kd: > 120 µM
[1]; [5]
  Kd: 55.7 µM
[2]
  % Displacement: (11) %
[3]; Example 4, Table 3
  Kd: 85.4 µM
Rat Serum Albumin; Example 4, Table 3
  Kd: > 120 µM

## CCCC(CCC)C(=O)O [Valproate, valproate]
Mouse Serum Albumin; Example 4, Table 3
  Kd: > 62.5 µM
[1]; [5]
  Kd: > 62.5 µM
[2]
  % Displacement: (31) %
[3]; Example 4, Table 3
  Kd: > 62.5 µM
Rat Serum Albumin; Example 4, Table 3
  Kd: > 62.5 µM

## CCC(Cc1c(I)cc(I)c(N)c1I)C(=O)O (stereo not shown) [Iodopanoate, iodopanoate]
Mouse Serum Albumin; Example 4, Table 3
  Kd: 0.758 µM
HSA
  Reported Binding Site: Site 2
[1]
  Kd: 0.633 µM
[1]; [6]
  Type of HSA Binding Interaction: Type 3
[2]
  IC50: 7.45 µM
  % Displacement: (83) %
[3]; Example 4, Table 3
  Kd: 1.3 µM
Rat Serum Albumin; Example 4, Table 3
  Kd: 0.96 µM

## CCOC(=O)C(C)(C)Oc1ccc(Cl)cc1 [Clofibrate, clofibrate]
Mouse Serum Albumin; Example 4, Table 3
  Kd: > 62.5 µM
[1]; [5]
  Kd: > 62.5 µM
[2]
  % Displacement: (10) %
[3]; Example 4, Table 3
  Kd: > 62.5 µM
Rat Serum Albumin; Example 4, Table 3
  Kd: > 62.5 µM

## Nc1ccc(S(=O)(=O)Nc2nccs2)cc1 [Sulfathiazole, sulfathiazole]
Mouse Serum Albumin; Example 4, Table 3
  Kd: > 62.5 µM
HSA
  Reported Binding Site: Site 1
[1]; [5]
  Kd: > 62.5 µM
[1]; [6]
  Type of HSA Binding Interaction: Type 4
[2]
  % Displacement: (40) %
[3]; Example 4, Table 3
  Kd: > 62.5 µM
Rat Serum Albumin; Example 4, Table 3
  Kd: > 62.5 µM

Reference: patent US8476081B2, “Assay for evaluating affinity and specificity of ligand-albumin binding” (Janssen Pharmaceutica NV, priority 2009, dated 2013)
